Row | SMILES | melting point [°C]
1 | COC(=O)c1ccc(CN([C@@H](C(=O)NO)C(C)C)S(=O)(=O)c2ccc(OC)cc2)cc1 [Compound 21, N-Hydroxy-2(R)-[(4-methoxycarbonylbenzyl)-(4-methoxybenzenesulfonyl)amino]-3-methylbutyramide] | 164 to 165
2 | COc1cc(C)c(S(=O)(=O)N(Cc2ccc3c(c2)OCO3)[C@@H](C(=O)NO)[C@H](C)O)c(C)c1C [Compound 87, N-hydroxy-2(R)-[(3,4-methylenedioxybenzyl)-(4-methoxy-2,3,6-trimethylbenzenesulfonyl)amino]-3(S)-hydroxybutyramide] | 95 to 105
3 | COc1cc(C)c(S(=O)(=O)N(Cc2ccc3[nH]cc(C(C)=O)c3c2)[C@@H](C(=O)NO)C(C)C)c(C)c1C [Compound 126, N-hydroxy-2(R)-[(1H-3-acetyl-indol-5-ylmethyl)-(4-methoxy-2,3,6-trimethylbenzenesulfonyl)amino]-3-methylbutyramide] | 163 to 171
4 | COc1cc(C)c(S(=O)(=O)N(Cc2ccc3c(c2)OCO3)[C@H](CNS(C)(=O)=O)C(=O)NO)c(C)c1 [Compound 128, N-hydroxy-2(R)-[(3,4-methylendioxybenzyl)-(2,6-dimethyl-4-methoxybenzenesulfonyl)amino]-3-(methanesulfonyl)amino-propionamide] | 98 to 102
5 | COc1cc(C)c(S(=O)(=O)N(Cc2ccc3c(c2)OCO3)[C@H](CNS(=O)(=O)c2ccccc2)C(=O)NO)c(C)c1 [Compound 129, N-hydroxy-2(R)-[(3,4-methylendioxybenzyl)-(2,6-dimethyl-4-methoxybenzenesulfonyl)amino]-3-benzenesulfonylamino-propionamide] | 103 to 107
6 | COC(=O)c1ccc(C(=O)NC[C@H](C(=O)NO)N(Cc2ccc3c(c2)OCO3)S(=O)(=O)c2c(C)cc(OC)cc2C)cc1 [Compound 133, N-hydroxy-2(R)-[(3,4-methylendioxybenzyl)-(2,6-dimethyl-4-methoxybenzenesulfonyl)amino]-3-(4-methoxycarbonyl-benzoyl)amino-propionamide] | 119 to 124
7 | COc1cc(C)c(S(=O)(=O)N(Cc2ccc3[nH]ccc3c2)[C@@H](C(=O)NO)C(C)C)cc1C [Compound 145, N-hydroxy-2(R)-2-[(1H-indol-5-ylmethyl)-(4-methoxy-2,5-dimethylbenzenesulfonyl)-amino]-3-methylbutyramide] | 117 to 121
